From PubChem BioAssay (NCI)
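Dose response: 5 concentrations. Exposure: 48 h. Format: 96-well plates. Endpoint: linear interpolation; highest concentration if not reached. At the GI50, growth is halved. Definition used: TGI = concentration required for complete inhibition of growth.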

Experiments:
Assay in all cases: growth of human tumour cells (NCI), 48 h
UO-31 renal = test system: UO-31 renal
IGROV1 ovarian = test system: IGROV1 ovarian
T-47D breast = test system: T-47D breast
OVCAR-4 ovarian = test system: OVCAR-4 ovarian
UACC-257 melanoma = test system: UACC-257 melanoma
M14 melanoma = test system: M14 melanoma
CAKI-1 renal = test system: CAKI-1 renal
HL-60(TB) leukemia = test system: HL-60(TB) leukemia
OVCAR-3 ovarian = test system: OVCAR-3 ovarian
HT29 colon = test system: HT29 colon
MOLT-4 leukemia = test system: MOLT-4 leukemia
HCT-116 colon = test system: HCT-116 colon
NCI-H23 lung = test system: NCI-H23 lung
LOX IMVI melanoma = test system: LOX IMVI melanoma
BT-549 breast = test system: BT-549 breast
ACHN renal = test system: ACHN renal
NCI-H460 lung = test system: NCI-H460 lung
DU-145 prostate = test system: DU-145 prostate
UACC-62 melanoma = test system: UACC-62 melanoma
TK-10 renal = test system: TK-10 renal
SK-MEL-28 melanoma = test system: SK-MEL-28 melanoma
SK-MEL-2 melanoma = test system: SK-MEL-2 melanoma
SNB-19 CNS = test system: SNB-19 CNS
SK-MEL-5 melanoma = test system: SK-MEL-5 melanoma
MCF7 breast = test system: MCF7 breast
U251 CNS = test system: U251 CNS
HS 578T breast = test system: HS 578T breast
KM12 colon = test system: KM12 colon
HOP-92 NSCLC = test system: HOP-92 NSCLC
SN12C renal = test system: SN12C renal
EKVX NSCLC = test system: EKVX NSCLC
SW-620 colon = test system: SW-620 colon
SNB-75 CNS = test system: SNB-75 CNS
A549 NSCLC = test system: A549 NSCLC
HCC-2998 colon = test system: HCC-2998 colon
NCI/ADR-RES ovarian = test system: NCI/ADR-RES ovarian
HOP-62 NSCLC = test system: HOP-62 NSCLC
COLO 205 colon = test system: COLO 205 colon
HCT-15 colon = test system: HCT-15 colon
OVCAR-5 ovarian = test system: OVCAR-5 ovarian
NCI-H226 lung = test system: NCI-H226 lung
RPMI-8226 leukemia = test system: RPMI-8226 leukemia
SF-295 CNS = test system: SF-295 CNS
A498 renal = test system: A498 renal
PC-3 prostate = test system: PC-3 prostate
786-0 renal = test system: 786-0 renal
OVCAR-8 ovarian = test system: OVCAR-8 ovarian
MDA-MB-231 breast = test system: MDA-MB-231 breast
SR leukemia = test system: SR leukemia
CCRF-CEM leukemia = test system: CCRF-CEM leukemia
SF-268 CNS = test system: SF-268 CNS
SK-OV-3 ovarian = test system: SK-OV-3 ovarian
K-562 leukemia = test system: K-562 leukemia
SF-539 CNS = test system: SF-539 CNS
NCI-H522 lung = test system: NCI-H522 lung

Nc1nc(-c2cccc3ccccc23)cc2ccccc12
GI50 (UO-31 renal): 1170 nM
TGI (UO-31 renal): 9680 nM
GI50 (IGROV1 ovarian): 444 nM
TGI (IGROV1 ovarian): 5440 nM
GI50 (T-47D breast): 359 nM
TGI (T-47D breast): 33900 nM
GI50 (OVCAR-4 ovarian): 1600 nM
TGI (OVCAR-4 ovarian): 24400 nM
GI50 (UACC-257 melanoma): 196 nM
TGI (UACC-257 melanoma): 16000 nM
GI50 (M14 melanoma): 549 nM
TGI (M14 melanoma): 12400 nM
GI50 (CAKI-1 renal): 460 nM
TGI (CAKI-1 renal): 19600 nM
GI50 (HL-60(TB) leukemia): 232 nM
TGI (HL-60(TB) leukemia): > 100000 nM
GI50 (OVCAR-3 ovarian): 343 nM
TGI (OVCAR-3 ovarian): 10400 nM
GI50 (HT29 colon): 358 nM
TGI (HT29 colon): 12900 nM
GI50 (MOLT-4 leukemia): 638 nM
TGI (MOLT-4 leukemia): > 54200 nM
GI50 (HCT-116 colon): 342 nM
TGI (HCT-116 colon): 13400 nM
GI50 (NCI-H23 lung): 732 nM
TGI (NCI-H23 lung): 24100 nM
GI50 (LOX IMVI melanoma): 777 nM
TGI (LOX IMVI melanoma): 14200 nM
GI50 (BT-549 breast): 13200 nM
TGI (BT-549 breast): 27900 nM
GI50 (ACHN renal): 1100 nM
TGI (ACHN renal): 18300 nM
GI50 (NCI-H460 lung): 332 nM
TGI (NCI-H460 lung): 10600 nM
GI50 (DU-145 prostate): 377 nM
TGI (DU-145 prostate): 2980 nM
GI50 (UACC-62 melanoma): 521 nM
TGI (UACC-62 melanoma): 14600 nM
GI50 (TK-10 renal): 6300 nM
TGI (TK-10 renal): 29400 nM
GI50 (SK-MEL-28 melanoma): 563 nM
TGI (SK-MEL-28 melanoma): 24000 nM
GI50 (SK-MEL-2 melanoma): 647 nM
TGI (SK-MEL-2 melanoma): 22300 nM
GI50 (SNB-19 CNS): 514 nM
TGI (SNB-19 CNS): 13400 nM
GI50 (SK-MEL-5 melanoma): 287 nM
TGI (SK-MEL-5 melanoma): 10300 nM
GI50 (MCF7 breast): 108 nM
TGI (MCF7 breast): 13100 nM
GI50 (U251 CNS): 494 nM
TGI (U251 CNS): 13200 nM
GI50 (HS 578T breast): 245 nM
TGI (HS 578T breast): 3910 nM
GI50 (KM12 colon): 386 nM
TGI (KM12 colon): 9700 nM
GI50 (HOP-92 NSCLC): 1630 nM
TGI (HOP-92 NSCLC): 11900 nM
GI50 (SN12C renal): 789 nM
TGI (SN12C renal): 16000 nM
GI50 (EKVX NSCLC): 1290 nM
TGI (EKVX NSCLC): > 40400 nM
GI50 (SW-620 colon): 314 nM
TGI (SW-620 colon): 20000 nM
GI50 (SNB-75 CNS): 206 nM
TGI (SNB-75 CNS): 3800 nM
GI50 (A549 NSCLC): 476 nM
TGI (A549 NSCLC): 14900 nM
GI50 (HCC-2998 colon): 231 nM
TGI (HCC-2998 colon): 1120 nM
GI50 (NCI/ADR-RES ovarian): 463 nM
TGI (NCI/ADR-RES ovarian): 22100 nM
GI50 (HOP-62 NSCLC): 1000 nM
TGI (HOP-62 NSCLC): 17600 nM
GI50 (COLO 205 colon): 332 nM
TGI (COLO 205 colon): 1900 nM
GI50 (HCT-15 colon): 409 nM
TGI (HCT-15 colon): 12600 nM
GI50 (OVCAR-5 ovarian): 1250 nM
TGI (OVCAR-5 ovarian): 19700 nM
GI50 (NCI-H226 lung): 1120 nM
TGI (NCI-H226 lung): 15900 nM
GI50 (RPMI-8226 leukemia): 214 nM
TGI (RPMI-8226 leukemia): 573 nM
GI50 (SF-295 CNS): 278 nM
TGI (SF-295 CNS): 13800 nM
GI50 (A498 renal): 351 nM
TGI (A498 renal): 3960 nM
GI50 (PC-3 prostate): 257 nM
TGI (PC-3 prostate): 4080 nM
GI50 (786-0 renal): 503 nM
TGI (786-0 renal): 13400 nM
GI50 (OVCAR-8 ovarian): 577 nM
TGI (OVCAR-8 ovarian): 17800 nM
GI50 (MDA-MB-231 breast): 712 nM
TGI (MDA-MB-231 breast): 13400 nM
TGI (SR leukemia): > 44200 nM
GI50 (CCRF-CEM leukemia): 234 nM
TGI (CCRF-CEM leukemia): 3170 nM
GI50 (SF-268 CNS): 530 nM
TGI (SF-268 CNS): 10800 nM
GI50 (SK-OV-3 ovarian): 466 nM
TGI (SK-OV-3 ovarian): 13900 nM
GI50 (K-562 leukemia): 4810 nM
TGI (K-562 leukemia): > 100000 nM
GI50 (SF-539 CNS): 291 nM
TGI (SF-539 CNS): 1690 nM
GI50 (NCI-H522 lung): 324 nM
TGI (NCI-H522 lung): 2850 nM
